Two compounds from ChEMBL document CHEMBL4251597, “Discovery and evolution of aloperine derivatives as a new family of HCV inhibitors with novel mechanism” (Eur J Med Chem, 2018) can be followed below.

In general, half-life refers to the time needed for the level to fall by half in the phase considered. Broadly, the CC50 is the concentration giving 50% cytotoxicity. The low end stands for greater toxicity to the cells, the high end for lower toxicity to the cells. For orientation: AUC(0-t) means exposure summed from dosing to a finite time, without extrapolation to infinity. A high value points to more exposure. For orientation: MRT means a mean duration of stay, worked out from the concentration-time curve. As usually defined, the LD50 is the dose expected to kill half of the subjects tested. For orientation: Tmax means the time at which the peak concentration occurs. By Cmax is commonly meant the peak of the concentration-time curve. Broadly, the EC50 is the midpoint of the concentration-response curve.

The test system of data set [1] is Hepatitis C virus. The data set can be described thus: Antiviral activity against HCV J6/JFH/JC-1 infected in human Huh7.5 cells assessed as inhibition of NS3/4A S282T mutant levels at 20 uM treated with fresh media containing compound every 2 days by Western blot method. It counts as functional, organism-based. The conditions noted are these: Hepacivirus hominis. Background: Immunoblotting shows a protein as a band on a membrane.

The subject of data set [2] is Hepatitis C virus. The data set can be described thus: Antiviral activity against HCV J6/JFH/JC-1 infected in human Huh7.5 cells assessed as inhibition of NS3/4A levels at 10 uM treated with fresh media containing compound every 2 days in presence of NS5A inhibitor daclatasvir by Western blot method. The following applies: Hepacivirus hominis. It counts as functional, organism-based.

For data set [3], the system named is Hepatitis C virus. The data set can be described thus: Antiviral activity against HCV J6/JFH/JC-1 infected in human Huh7.5 cells harboring NS3/4A D168V mutant assessed as inhibition of viral core protein levels at 20 uM treated with fresh media containing compound every 2 days by Western blot method. It counts as functional, organism-based. The following applies: Hepacivirus hominis.

A short description of data set [4]: Selectivity index, ratio of CC50 for human Huh7.5 cells to EC50 for HCV J6/JFH/JC-1. Format: toxicity. The conditions noted are these: read-out: Ratio CC50/EC50.
Data set [5] can be described thus: Half life in mouse at 25 mg/kg, po after 0.25 to 6 hrs. It counts as ADME, organism-based. The following applies: in vivo.
Data set [6] relates to Hepatitis C virus. In words: Antiviral activity against HCV J6/JFH/JC-1 infected in human Huh7.5 cells assessed as inhibition of viral core protein levels after 72 hrs by Western blot method. The following applies: Hepacivirus hominis. It counts as functional, organism-based.
Data set [7] is described as follows: Cytotoxicity against human Huh7.5 cells after 72 hrs by MTT assay. Format: cell-based. For orientation: Tetrazolium dyes change colour on reduction, which living cells bring about.
The test system of data set [8] is Hepatitis C virus. The data set can be described thus: Antiviral activity against HCV J6/JFH/JC-1 infected in human Huh7.5 cells assessed as inhibition of NS3/4A levels at 20 uM incubated for 2 to 24 hrs measured within 72 hrs by Western blot method. It counts as functional, organism-based. The conditions noted are these: Hepacivirus hominis.
In data set [9] the test system is Hepatitis C virus. In words: Antiviral activity against HCV J6/JFH/JC-1 infected in human Huh7.5 cells assessed as inhibition of viral core protein levels at 10 uM treated with fresh media containing compound every 2 days in presence of NS5B inhibitor sofosbuvir by Western blot method. Format: functional, organism-based. The conditions noted are these: Hepacivirus hominis.

Data set [10] relates to Hepatitis C virus. The data set can be described thus: Antiviral activity against HCV J6/JFH/JC-1 infected in human Huh7.5 cells assessed as inhibition of viral core protein levels at 20 uM incubated for 2 to 24 hrs measured within 72 hrs by Western blot method. It counts as functional, organism-based. The conditions noted are these: Hepacivirus hominis.
The subject of data set [11] is Hepatitis C virus. In words: Antiviral activity against HCV J6/JFH/JC-1 infected in human Huh7.5 cells assessed as inhibition of viral core protein levels at 10 uM treated with fresh media containing compound every 2 days in presence of NS5A inhibitor daclatasvir by Western blot method. It counts as functional, organism-based. The following applies: Hepacivirus hominis.

Data set [12] has as its system Hepatitis C virus. The data set can be described thus: Antiviral activity against HCV J6/JFH/JC-1 infected in human Huh7.5 cells assessed as inhibition of viral core protein levels at 0.5 uM by Western blot method. Format: functional, organism-based. The following applies: Hepacivirus hominis, TDE = time-dependent effect.
Data set [13] in a line: AUC (0 to t) in mouse at 25 mg/kg, po after 0.25 to 6 hrs. On the set-up: time upper 6 hr, time lower 0.25 hr, dose 25 mg/kg, route oral. It counts as ADME, organism-based. The conditions noted are these: in vivo.
Data set [14] deals with Hepatitis C virus. The data set can be described thus: Antiviral activity against HCV infected in human GS4.3 cells assessed as inhibition of NS3/4A levels at 20 uM treated with fresh media containing compound every 2 days measured after 6 days by Western blot method. Format: functional, organism-based. The conditions noted are these: Hepacivirus hominis.
Data set [15] has as its system Hepatitis C virus. The data set can be described thus: Antiviral activity against HCV J6/JFH/JC-1 infected in human Huh7.5 cells assessed as inhibition of NS3/4A levels at 10 uM treated with fresh media containing compound every 2 days in presence of NS5B inhibitor sofosbuvir by Western blot method. Format: functional, organism-based. The conditions noted are these: Hepacivirus hominis.

Data set [16] relates to Hepatitis C virus. In words: Antiviral activity against 22.5 to 90 IU/cell of HCV J6/JFH/JC-1 infected in human Huh7.5 cells assessed as inhibition of viral core protein levels at 20 uM treated with fresh media containing compound every 2 days by Western blot method. It counts as functional, organism-based. The conditions noted are these: Hepacivirus hominis.
The subject of data set [17] is Hepatitis C virus. In words: Antiviral activity against HCV J6/JFH/JC-1 infected in human Huh7.5 cells assessed as inhibition of NS3/4A levels after 72 hrs by Western blot method. Format: functional, organism-based. The following applies: Hepacivirus hominis.
The subject of data set [18] is Hepatitis C virus. The data set can be described thus: Antiviral activity against HCV J6/JFH/JC-1 infected in human Huh7.5 cells assessed as inhibition of viral core protein levels at 20 uM preincubated for 2 hrs followed addition of Huh7.5 cells for 4 hrs measured within 72 hrs by Western blot method. It counts as functional, organism-based. The conditions noted are these: Hepacivirus hominis.

Data set [19] has as its system Hepatitis C virus. In words: Antiviral activity against HCV infected in human GS4.3 cells assessed as inhibition of viral core protein levels at 20 uM treated with fresh media containing compound every 2 days measured after 6 days by Western blot method. It counts as functional, organism-based. The conditions noted are these: Hepacivirus hominis.
A short description of data set [20]: MRT in mouse at 25 mg/kg, po after 0.25 to 6 hrs. Format: ADME, organism-based. The conditions noted are these: in vivo.
Data set [21] can be described thus: Acute toxicity in po dosed Kunming mouse measured for 7 days. Format: organism-based. The following applies: in vivo.
Data set [22] has as its target Hepatitis C virus serine protease, NS3/NS4A (Hepatitis C virus) (UniProt D2K2A8+A3EZI9). In words: Inhibition of HCV NS3/4A protease at 200 uM. The conditions noted are these: Hepacivirus hominis. Format: protein-complex assay.
Data set [23] can be described thus: Tmax in mouse at 25 mg/kg, po after 0.25 to 6 hrs. It counts as ADME, organism-based. The conditions noted are these: in vivo.
For data set [24], the system named is Hepatitis C virus. In words: Antiviral activity against HCV J6/JFH/JC-1 infected in human Huh7.5 cells harboring […] S282T mutant assessed as inhibition of viral core protein levels at 20 uM treated with fresh media containing compound every 2 days by Western blot method. The conditions noted are these: Hepacivirus hominis. Format: functional, organism-based.

The subject of data set [25] is Hepatitis C virus. In words: Antiviral activity against HCV J6/JFH/JC-1 infected in human Huh7.5 cells assessed as inhibition of NS3/4A protein levels at 0.5 uM by Western blot method. It counts as functional, organism-based. The conditions noted are these: Hepacivirus hominis, TDE = time-dependent effect.
Data set [26] deals with Hepatitis C virus. The data set can be described thus: Antiviral activity against 22.5 to 90 IU/cell of HCV J6/JFH/JC-1 infected in human Huh7.5 cells assessed as inhibition of NS3/4A levels at 20 uM treated with fresh media containing compound every 2 days by Western blot method. The following applies: Hepacivirus hominis. Format: functional, organism-based.
The subject of data set [27] is Hepatitis C virus. The data set can be described thus: Antiviral activity against HCV J6/JFH/JC-1 infected in human Huh7.5 cells assessed as inhibition of NS3/4A D168V mutant levels at 20 uM treated with fresh media containing compound every 2 days by Western blot method. It counts as functional, organism-based. The conditions noted are these: Hepacivirus hominis.

Data set [28] concerns Hepatitis C virus. The data set can be described thus: Antiviral activity against HCV J6/JFH/JC-1 infected in human Huh7.5 cells assessed as inhibition of viral core protein levels at 10 uM treated with fresh media containing compound every 2 days in presence of NS3/4A inhibitor simeprevir by Western blot method. The following applies: Hepacivirus hominis. It counts as functional, organism-based.

Data set [29] can be described thus: Cmax in mouse at 25 mg/kg, po after 0.25 to 6 hrs. The conditions noted are these: in vivo. Set-up: dose 25 mg/kg, route oral. Format: ADME, organism-based.
For data set [30], the system named is Hepatitis C virus. In words: Antiviral activity against HCV J6/JFH/JC-1 infected in human Huh7.5 cells assessed as inhibition of viral RNA replication after 72 hrs by qRT-PCR method. It counts as functional, organism-based, Hepacivirus hominis. The conditions noted are these: J6/JFH/JC-1, Huh7.5, 72 h.
The subject of data set [31] is Hepatitis C virus. In words: Antiviral activity against HCV J6/JFH/JC-1 infected in human Huh7.5 cells assessed as inhibition of NS3/4A A156T mutant levels at 20 uM treated with fresh media containing compound every 2 days by Western blot method. The conditions noted are these: Hepacivirus hominis. Format: functional, organism-based.
Data set [32] has as its system Hepatitis C virus. The data set can be described thus: Antiviral activity against HCV J6/JFH/JC-1 infected in human Huh7.5 cells harboring NS3/4A A156T mutant assessed as inhibition of viral core protein levels at 20 uM treated with fresh media containing compound every 2 days by Western blot method. It counts as functional, organism-based. The conditions noted are these: Hepacivirus hominis.

Data set [33] deals with Hepatitis C virus. The data set can be described thus: Antiviral activity against HCV J6/JFH/JC-1 infected in human Huh7.5 cells assessed as inhibition of NS3/4A levels at 10 uM treated with fresh media containing compound every 2 days in presence of NS3/4A inhibitor simeprevir by Western blot method. It counts as functional, organism-based. The following applies: Hepacivirus hominis.

Data set [34] has as its system Hepatitis C virus. The data set can be described thus: Antiviral activity against HCV J6/JFH/JC-1 infected in human Huh7.5 cells assessed as inhibition of NS3/4A levels at 20 uM preincubated for 2 hrs followed addition of Huh7.5 cells for 4 hrs measured within 72 hrs by Western blot method. It counts as functional, organism-based. The following applies: Hepacivirus hominis.

In data set [35] the test system is Hepatitis C virus. In words: Antiviral activity against HCV infected in human GS4.3 cells assessed as inhibition of viral core protein levels at 0.15 uM treated with fresh media containing compound every 2 days measured after 6 days by Western blot method. Format: functional, organism-based. The following applies: Hepacivirus hominis.
For data set [36], the system named is Hepatitis C virus. In words: Antiviral activity against HCV infected in human GS4.3 cells assessed as inhibition of NS3/4A levels at 0.15 uM treated with fresh media containing compound every 2 days measured after 6 days by Western blot method. It counts as functional, organism-based. The conditions noted are these: Hepacivirus hominis.

Activity calls are given as the source filed them. Bounds are passed on as bounds.

In the case of `CN1CCN(S(=O)(=O)N2CCCC3=C[C@H]4C[C@H](CN5CCCC[C@H]45)[C@@H]32)CC1`, the inhibition result in [1], in [2], in data set [3], in data set [8], in data set [9] and in [10] was “Active” each time. Also, the inhibition entry in [11], in [14], in data set [15], in data set [16], in data set [18] and in [19] was “Active” each time. For the same compound, the inhibition result in [24], in [26], in [27], in [28], in data set [31] and in data set [32] was “Active” in each case. In addition, the inhibition result in [33] and in [34] was “Active” in each case. Moreover, the selectivity ratio in [4] is over 140. Further, the half-life in [5] was 9.47 h. Besides, the inhibition result in [6] is “Dose-dependent effect”; in data set [12] it was “Tde”; in data set [17], “Dose-dependent effect”; in data set [25], “Tde”. The same compound registered a CC50 at 72 h in data set [7] of over 500 µM. In data set [13], the AUC(0-t) came to 7.6 µM·h. Also, the MRT in data set [20] was 6.11 h. Moreover, the LD50 at 168 h in data set [21] was over 1000 mg/kg. The inhibition entry in data set [22] is “inactive”. Further, the Tmax in [23] came out at 1 h. Besides, the Cmax in data set [29] amounted to 1370 nM. Moreover, the EC50 in data set [30] was 3.56 µM.

`COC(=O)N[C@H](C(=O)N1CCC[C@H]1c1ncc(-c2ccc(-c3ccc(-c4cnc([C@@H]5CCCN5C(=O)[C@@H](NC(=O)OC)C(C)C)[nH]4)cc3)cc2)[nH]1)C(C)C`: the inhibition result in data set [35] and in [36] was “Active” each time.
